Results from patent US20250000088A1, “ANT CONTROL AGENT AND ANT CONTROL METHOD” (Shin-Etsu Chemical Co., Ltd., priority 2021, published 2025).

Test system: worker ants of Myrmica ruginodis
Test: Bioassay for selection of odor source (two arms of a four-arm olfactometer)
Format: in vivo
Settings: 10 ants per group, 3 repetitions, max 5 min
Protocol: Bioassays were performed using the worker ants of Myrmica ruginodis which had been collected in Niigata Prefecture in Japan. The bioassays were performed using only two arms of a four-arm olfactometer (classic 4-Choice Arena Orfactometer, Sigma Scientific LLC) as shown in FIG. 5. Pure air filled in a 47 L gas cylinder was used as an air source, and the air flow rate was adjusted by a regulator. […] The ants were used as each group consisting of 10 ants, the test was started at the time of entering the ants from the inlet 1, and the selection for the odor source was made for a maximum of 5 minutes per repetition. The choice of odor source was determined by counting the number of ants in the insect separation chamber 2 at the end of the test. Five minutes after the start of the experiment, and when all 10 ants selected any one of odor sources, the results were recorded, and the tested ants were removed. Then three repetitions (using a total of 30 ants) of experiments were performed. Each cotton swab serving as an odor source was installed in each odor source installation adapter 3, and was replaced with a new one at every repetition. The glassware was washed after each repetition, and the odor source installation adapter for installing an odor source in the olfactometer was selected randomly. […]

CCCCCC(=O)CC [3-octanone]
number of ants gathering at the odor source (choice of odor source) (cotton swab containing 1.1 mg of mixture (3-octanone diluted with distilled water with Triton X-100) vs distilled water control, FIG. 2): gathered in the alarm pheromone compound treatment section
number of ants gathering at the odor source (choice of odor source) (cotton swab containing 7.6 mg of mixture (3-octanone diluted in distilled water with Triton X-100) vs distilled water control, FIG. 1): gathered in the control section, while avoiding the alarm pheromone compound treatment section
